# Assay results published in ChEMBL document CHEMBL1201862, “PubChem BioAssay data set” (2004).
# The source made the active and inactive calls.
# Columns and labels:
# Beta-galactosidase = Beta-galactosidase (Escherichia coli, UniProt Q8VNN2); assay: PubChem AID 485352; assay type: functional
# [1] = biological target: Type-1 angiotensin II receptor (Homo sapiens, UniProt P30556); assay: antagonism of angiotensin II type 1 receptor – cell-based, uHTS hits, selectivity assay for APJ receptor antagonist project, dose response (AID 463214); assay type: functional;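 note: antagonist potency against angiotensin II stimulated AT1 response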
# Chain of Type-1 angiotensin II receptor (P30556 whole entry, the tested form may be a part): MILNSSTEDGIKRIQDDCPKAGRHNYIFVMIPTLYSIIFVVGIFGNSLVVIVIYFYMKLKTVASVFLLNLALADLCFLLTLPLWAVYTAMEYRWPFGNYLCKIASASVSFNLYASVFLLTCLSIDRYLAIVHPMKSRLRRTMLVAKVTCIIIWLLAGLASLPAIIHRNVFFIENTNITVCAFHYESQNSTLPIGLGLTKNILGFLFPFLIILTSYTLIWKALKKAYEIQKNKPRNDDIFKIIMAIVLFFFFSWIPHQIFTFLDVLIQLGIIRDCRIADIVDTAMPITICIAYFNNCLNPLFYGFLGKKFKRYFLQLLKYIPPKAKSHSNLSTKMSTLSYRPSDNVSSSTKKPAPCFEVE
# [2] = biological target: T1, Sentrin-specific protease 6 (Homo sapiens, UniProt Q9GZR1); assay: inhibition of human SENP6 catalytic domain – biochemical, luminescence, set 2, SAR follow-up (AID 588598); assay type: functional
# T1 sequence (Q9GZR1 whole entry): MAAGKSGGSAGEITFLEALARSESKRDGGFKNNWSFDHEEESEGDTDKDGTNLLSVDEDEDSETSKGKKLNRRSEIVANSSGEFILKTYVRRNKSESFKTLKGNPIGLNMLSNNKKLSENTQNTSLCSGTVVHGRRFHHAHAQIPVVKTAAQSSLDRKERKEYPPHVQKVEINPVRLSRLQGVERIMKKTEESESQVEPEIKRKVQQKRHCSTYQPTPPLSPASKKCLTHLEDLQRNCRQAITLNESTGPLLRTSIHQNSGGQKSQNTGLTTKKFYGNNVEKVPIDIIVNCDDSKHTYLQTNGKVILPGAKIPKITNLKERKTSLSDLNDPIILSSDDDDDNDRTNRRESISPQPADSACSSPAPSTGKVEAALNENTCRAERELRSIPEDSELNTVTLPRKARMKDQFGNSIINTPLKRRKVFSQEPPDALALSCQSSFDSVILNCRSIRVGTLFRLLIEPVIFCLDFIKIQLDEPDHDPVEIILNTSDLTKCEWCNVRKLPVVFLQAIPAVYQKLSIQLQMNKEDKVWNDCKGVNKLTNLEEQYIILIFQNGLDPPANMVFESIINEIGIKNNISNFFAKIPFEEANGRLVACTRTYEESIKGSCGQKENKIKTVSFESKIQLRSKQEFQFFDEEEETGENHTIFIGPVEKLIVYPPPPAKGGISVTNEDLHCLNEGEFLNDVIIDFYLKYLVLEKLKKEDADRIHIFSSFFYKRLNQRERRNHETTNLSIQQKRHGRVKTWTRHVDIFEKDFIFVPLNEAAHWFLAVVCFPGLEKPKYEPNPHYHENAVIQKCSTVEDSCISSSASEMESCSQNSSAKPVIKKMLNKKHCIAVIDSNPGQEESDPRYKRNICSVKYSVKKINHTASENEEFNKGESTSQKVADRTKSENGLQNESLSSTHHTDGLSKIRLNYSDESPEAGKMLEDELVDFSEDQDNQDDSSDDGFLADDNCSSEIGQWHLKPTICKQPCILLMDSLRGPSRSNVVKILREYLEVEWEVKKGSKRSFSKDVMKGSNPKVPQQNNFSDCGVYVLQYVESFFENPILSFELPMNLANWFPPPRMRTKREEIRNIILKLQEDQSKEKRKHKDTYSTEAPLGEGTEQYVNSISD
# Caspase-3 = biological target: T2, Caspase-3 (Homo sapiens, UniProt P42574); assay: inhibition of recombinant caspase-3 activity – biochemical, luminescence, set 2, selectivity assay for SENP protease inhibitor project, SAR follow-up (AID 588599); assay type: functional
# T2 sequence (P42574 whole entry): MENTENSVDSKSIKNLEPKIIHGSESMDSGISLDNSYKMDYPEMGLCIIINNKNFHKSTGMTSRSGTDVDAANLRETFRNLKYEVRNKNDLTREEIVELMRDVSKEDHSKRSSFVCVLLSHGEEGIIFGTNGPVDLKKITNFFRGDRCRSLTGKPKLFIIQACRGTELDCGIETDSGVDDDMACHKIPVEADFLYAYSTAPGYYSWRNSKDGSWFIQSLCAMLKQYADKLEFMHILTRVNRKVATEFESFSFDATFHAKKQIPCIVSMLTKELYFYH
# [3] = biological target: T3, Sentrin-specific protease 7 (Homo sapiens, UniProt Q9BQF6); assay: inhibition of human SENP7 cleavage activity – biochemical, luminescence, set 2, SAR follow-up (AID 588600); assay type: functional
# T3 sequence (Q9BQF6 whole entry): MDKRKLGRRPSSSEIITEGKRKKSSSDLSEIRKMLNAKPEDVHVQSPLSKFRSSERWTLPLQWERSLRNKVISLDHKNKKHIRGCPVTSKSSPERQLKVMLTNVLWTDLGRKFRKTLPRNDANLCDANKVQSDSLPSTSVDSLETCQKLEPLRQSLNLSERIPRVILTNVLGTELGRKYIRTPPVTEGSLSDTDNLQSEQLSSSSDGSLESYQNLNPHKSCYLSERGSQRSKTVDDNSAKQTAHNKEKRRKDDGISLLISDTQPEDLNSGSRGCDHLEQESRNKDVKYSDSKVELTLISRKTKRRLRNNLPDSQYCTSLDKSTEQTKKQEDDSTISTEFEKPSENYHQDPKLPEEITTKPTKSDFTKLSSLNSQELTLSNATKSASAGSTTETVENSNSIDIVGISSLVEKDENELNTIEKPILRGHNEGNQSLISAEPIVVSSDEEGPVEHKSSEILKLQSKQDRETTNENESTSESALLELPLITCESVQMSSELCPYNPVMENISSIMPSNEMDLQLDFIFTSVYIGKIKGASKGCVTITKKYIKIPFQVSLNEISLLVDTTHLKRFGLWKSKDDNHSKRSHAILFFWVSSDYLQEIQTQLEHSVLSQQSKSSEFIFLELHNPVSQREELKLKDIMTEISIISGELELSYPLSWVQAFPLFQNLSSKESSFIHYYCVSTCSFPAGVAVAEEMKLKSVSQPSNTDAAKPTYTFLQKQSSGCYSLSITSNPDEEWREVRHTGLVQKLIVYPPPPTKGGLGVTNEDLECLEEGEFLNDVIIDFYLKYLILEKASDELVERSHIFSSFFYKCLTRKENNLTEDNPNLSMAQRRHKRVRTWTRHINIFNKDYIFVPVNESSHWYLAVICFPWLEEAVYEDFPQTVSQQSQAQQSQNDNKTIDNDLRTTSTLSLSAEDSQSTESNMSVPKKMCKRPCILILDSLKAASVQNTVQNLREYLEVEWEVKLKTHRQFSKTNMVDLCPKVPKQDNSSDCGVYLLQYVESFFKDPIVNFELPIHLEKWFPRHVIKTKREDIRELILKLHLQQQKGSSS
# [4] = biological target: T4, Sentrin-specific protease 8 (Homo sapiens, UniProt Q96LD8); assay: inhibition of sentrin protease 8 – biochemical, luminescence, set 2, SAR follow-up (AID 588601); assay type: functional
# T4 sequence (Q96LD8 whole entry): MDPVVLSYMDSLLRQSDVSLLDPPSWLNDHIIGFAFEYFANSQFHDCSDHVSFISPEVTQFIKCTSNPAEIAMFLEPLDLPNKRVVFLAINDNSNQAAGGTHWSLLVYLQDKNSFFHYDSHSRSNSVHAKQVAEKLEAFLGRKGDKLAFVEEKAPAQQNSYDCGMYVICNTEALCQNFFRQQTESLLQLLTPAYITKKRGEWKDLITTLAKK
# HEK293 = assay: cells; assay type: functional, cell-based; conditions: Homo sapiens
# [5] = biological target: Nuclear receptor subfamily 0 group B member 1 (Homo sapiens, UniProt P51843); assay: Luminescence-based cell-based high throughput dose response assay for inhibitors of the orphan nuclear receptor subfamily 0, group B, member 1 (DAX1; NR0B1). [Related pubchem assays (depositor defined):AID504766, AID504790]; assay type: functional
# Chain of Nuclear receptor subfamily 0 group B member 1 (P51843 whole entry): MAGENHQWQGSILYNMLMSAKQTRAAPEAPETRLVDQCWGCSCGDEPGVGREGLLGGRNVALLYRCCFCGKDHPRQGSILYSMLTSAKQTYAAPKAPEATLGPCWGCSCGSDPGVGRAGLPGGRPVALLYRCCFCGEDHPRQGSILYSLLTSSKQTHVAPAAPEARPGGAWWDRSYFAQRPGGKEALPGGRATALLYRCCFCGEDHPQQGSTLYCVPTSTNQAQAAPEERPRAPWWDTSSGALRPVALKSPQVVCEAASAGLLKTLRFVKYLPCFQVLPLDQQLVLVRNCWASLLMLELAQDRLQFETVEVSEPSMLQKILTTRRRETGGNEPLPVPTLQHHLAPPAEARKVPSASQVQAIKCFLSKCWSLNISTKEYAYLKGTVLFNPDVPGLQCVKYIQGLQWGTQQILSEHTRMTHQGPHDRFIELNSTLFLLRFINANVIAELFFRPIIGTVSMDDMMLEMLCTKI
# [6] = biological target: T5, DNA repair and recombination protein RAD54-like (Homo sapiens, UniProt Q92698); assay: RAD54 Holliday junction migration blockers – biochemical, fluorescence, cherry-picked samples, dose series, confirmation (AID 651657); assay type: functional
# T5 sequence (Q92698 whole entry): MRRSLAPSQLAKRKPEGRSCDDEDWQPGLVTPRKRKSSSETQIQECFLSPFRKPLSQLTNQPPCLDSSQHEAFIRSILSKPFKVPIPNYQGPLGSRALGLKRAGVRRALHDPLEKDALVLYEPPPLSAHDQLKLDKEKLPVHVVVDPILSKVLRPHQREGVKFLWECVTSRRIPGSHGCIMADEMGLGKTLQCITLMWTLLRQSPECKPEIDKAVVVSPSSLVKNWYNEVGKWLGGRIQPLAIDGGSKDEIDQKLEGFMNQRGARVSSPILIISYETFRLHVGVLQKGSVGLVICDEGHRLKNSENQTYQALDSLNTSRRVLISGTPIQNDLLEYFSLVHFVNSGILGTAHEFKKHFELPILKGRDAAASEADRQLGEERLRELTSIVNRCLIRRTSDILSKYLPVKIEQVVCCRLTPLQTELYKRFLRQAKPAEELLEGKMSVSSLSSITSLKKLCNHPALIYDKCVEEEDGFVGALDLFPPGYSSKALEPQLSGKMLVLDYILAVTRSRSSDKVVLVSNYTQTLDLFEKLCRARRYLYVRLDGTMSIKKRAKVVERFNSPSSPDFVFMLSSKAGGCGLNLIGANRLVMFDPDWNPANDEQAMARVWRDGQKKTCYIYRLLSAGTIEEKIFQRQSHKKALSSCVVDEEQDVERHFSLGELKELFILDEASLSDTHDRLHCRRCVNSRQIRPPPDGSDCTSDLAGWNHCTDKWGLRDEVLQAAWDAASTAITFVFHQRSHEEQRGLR
# Chain of Beta-galactosidase (Q8VNN2 whole entry): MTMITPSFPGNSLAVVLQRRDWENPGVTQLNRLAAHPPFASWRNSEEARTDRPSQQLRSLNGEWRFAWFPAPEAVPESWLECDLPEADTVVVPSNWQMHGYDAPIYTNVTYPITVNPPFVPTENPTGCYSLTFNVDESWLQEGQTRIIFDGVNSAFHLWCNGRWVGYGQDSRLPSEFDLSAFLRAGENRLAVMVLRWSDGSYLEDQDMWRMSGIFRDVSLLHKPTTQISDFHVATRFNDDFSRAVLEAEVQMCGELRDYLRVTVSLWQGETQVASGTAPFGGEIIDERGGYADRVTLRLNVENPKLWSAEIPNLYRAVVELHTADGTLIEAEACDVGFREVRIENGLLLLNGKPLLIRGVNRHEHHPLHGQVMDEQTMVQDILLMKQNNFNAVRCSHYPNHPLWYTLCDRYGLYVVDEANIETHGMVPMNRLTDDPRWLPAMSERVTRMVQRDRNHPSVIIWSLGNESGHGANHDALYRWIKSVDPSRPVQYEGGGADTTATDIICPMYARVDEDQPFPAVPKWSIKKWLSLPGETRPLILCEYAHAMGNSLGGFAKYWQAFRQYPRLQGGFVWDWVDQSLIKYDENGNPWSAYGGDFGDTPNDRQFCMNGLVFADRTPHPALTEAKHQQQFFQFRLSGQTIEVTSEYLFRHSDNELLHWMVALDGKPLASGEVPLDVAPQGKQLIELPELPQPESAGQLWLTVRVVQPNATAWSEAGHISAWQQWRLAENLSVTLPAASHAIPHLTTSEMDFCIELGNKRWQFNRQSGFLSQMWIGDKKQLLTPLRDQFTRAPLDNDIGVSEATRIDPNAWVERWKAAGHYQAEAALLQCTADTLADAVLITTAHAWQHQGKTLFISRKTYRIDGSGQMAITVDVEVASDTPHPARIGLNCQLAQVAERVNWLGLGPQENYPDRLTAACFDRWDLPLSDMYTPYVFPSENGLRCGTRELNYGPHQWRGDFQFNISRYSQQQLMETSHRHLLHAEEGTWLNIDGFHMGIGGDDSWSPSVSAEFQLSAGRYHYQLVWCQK
smiles,measurement,setting,value
CN(C)c1ccc(/C=C2\N=C(c3ccc(Cl)c([N+](=O)[O-])c3)NC2=O)cc1,EC50,Beta-galactosidase,> 40 µM (inactive)
same,IC50,[1],> 40 µM (not active)
Cc1[nH]c2ccccc2c1C(=O)C(=O)N1CCC2(CC1)OCCO2,IC50,[2],> 99 µM (inactive)
same,IC50,Caspase-3,> 99 µM (inactive)
same,IC50,[3],> 99 µM (inactive)
same,IC50,[4],> 99 µM (inactive)
CCN(CC)CCCNC(=O)c1cc2c(=O)n(C)c3ccccc3c2n1C,IC50,HEK293,> 67.5 µM (inactive)
same,IC50,[5],> 67.5 µM (inactive)
same,AC50,[6],26.9 µM (active)
